By IC50 is commonly meant the concentration needed to halve the response being measured.

One test relates to rat liver microsomes. The test is described as follows: lipid peroxidation: ascorbic acid-induced production of malonaldehyde in liver microsomes. The format is biochemical. Conditions: 0.1 mM ascorbic acid, 20 min at 37° C. As to the method: Furthermore, the effect on lipid peroxidation quantified by the measurement of ascorbic acid-induced production of malonaldehyde in rat liver microsomes. Specifically, homogenates of liver microsomes (150 μg) are pre-incubated for 5 min at 37° C. with the test salt (as a 10-fold concentrated solution in H2O), reference compound or water (control) in a buffer containing 300 mM NaCl, 0.1 mM FeCl3 and 8 mM NaH2PO4/Na2HPO4 (pH 7.4). Thereafter, the reaction is initiated by the addition of 0.1 mM ascorbic acid and the mixture is incubated for 20 min at 37° C. For basal control measurements, ascorbic acid is omitted from the incubation medium. These measurements are also used to detect any compound interference with the photometric detection at the selected wavelength. Following incubation, the reaction is stopped by the addition of 5 mM EDTA/NaOH. […] The amount of lipid peroxides present in the supernatant is quantified by measuring the absorbance at λ=532 nm using a spectrophotometer. This assay may be performed using the standard inhibitory reference compound N-propyl gallate, which may be tested in each experiment at several concentrations to obtain an inhibition curve from which its IC50 value is calculated. […]
On the technique in general: Liver microsomes are a subcellular fraction often used to study metabolism.

In the next test the test system is human HL-60 cells. The test is described as follows: superoxide O2- secretion from PMA-stimulated HL-60 cells (cytochrome C reduction). The format is cell-based. Conditions: 0.25 h, 30 nM PMA-stimulated HL-60 cells, 15 min at 37° C. As to the method:
In addition, the effect on superoxide O2 secretion was measured. This assay quantifies the secretion of superoxide O2^− from phorbol 12-mysirate 13-acetate (PMA)-stimulated human HL-60 cells, by the measurement of cytochrome C reduction. The test salt (as a 10-fold concentrated solution in H2O), reference compound or water (control) are pre-incubated for 15 min at 37° C. with HL-60 cells (5×10^5 cells) suspended in a buffer containing 137 mM NaCl, 2.68 mM KCl, 0.9 mM CaCl2, 0.5 mM MgCl2, 8.1 mM Na2HPO4, 1.47 mM KH2PO4 (pH 7.4 ) and 19 μM cytochrome C. The absorbance is then measured at λ=550 nm using a spectrophotometer to detect any compound interference with the photometric detection at this wavelength. Thereafter, the reaction is initiated by the addition of 30 nM PMA and the mixture is incubated for 15 min at 37° C. in the dark. For basal control measurements, the incubation medium also contains 275 U/ml superoxyde dismutase (SOD) to catalyze the destruction of superoxide O2^−. […] The absorbance is then measured at λ=550 nm and the activity is determined by subtracting signal measured in the presence of SOD from that measured in its absence. This assay may be performed using the standard inhibitory reference compound, diphenyleneiodonium, which may be tested in each experiment at several concentrations to obtain an inhibition curve from which its IC50 value is calculated. […]

The target of the next test is T1, inducible NOS (Mus musculus, UniProt P29477).
T1 construct: using an enzyme isolated from LPS-+INFγ-treated mouse macrophages; endogenous in cells; host or cells: LPS + IFN-gamma-treated mouse macrophages (enzyme isolated from the cells)
The test is described as follows: inducible NOS activity assay (formation of nitrite from arginine, Griess reagent). The format is biochemical. As to the method:
First, an inducible NOS activity assay was performed on the recrystallized salt of Example 2. This assay measures the formation of nitrite from arginine using an enzyme isolated from LPS-+INFγ-treated mouse macrophages. In this assay, the test salt (as a 10-fold concentrated solution in H2O), reference compound or water (control) are incubated for 180 min at 37° C. with the enzyme (0.5 U) in a buffer containing 40 mM Tris-HCl (pH 8.0), 0.5 mM NADPH, 4 μM FAD, 12 μM BH4, 3 mM DTT and 0.1 mM L-arginine. For basal control measurements, the enzyme is omitted from the incubation medium. Following incubation, Griess reagent containing 0.05% naphtylene diamine, 0.5% sulfanilamide and 2.5% orthophosphoric acid is added and the samples are incubated for 10 min at 22° C. The amount of nitrite produced is then quantified with a microplate reader (Spectrafluorplus, Tecan) by measuring the absorbance at λ=550 nm. The results are expressed as IC50 in M. This assay may be performed using the standard inhibitory reference compound, I400 W, which may be tested in each experiment at several concentrations to obtain an inhibition curve from which its IC50 value is calculated. Further information regarding this protocol may be found in Tayeh and Marletta (1989), Macrophage oxidation of L-arginine to nitric oxide, nitrite, and nitrate, J. Biol. Chem., 264: 19654.
For orientation: The Griess reaction detects nitrite, a stable product of nitric oxide.

For `CC(C)=NN=C(N)N`, the IC50 with rat liver microsomes worked out at 1800 µM; in the test on human HL-60 cells it was 310 µM; against inducible NOS (enzyme isolated from LPS-+INFγ-treated mouse macrophages, 180 min at 37° C., 0.1 mM L-arginine), 37 µM. In addition, the “nH, inducible NOS activity” value at inducible NOS (same inhibition curve as the IC50) was 0.9.

The values above are taken from patent publication US20110213021A1, “COMPOSITIONS AND METHODS FOR TREATING NOS-ASSOCIATED DISEASES” (Indigene Pharmaceuticals, Inc., priority 2008, published 2011).
